Assay results: paper PMC11588247, “Antimicrobial and antioxidant activities of peptide derived from turmeric plant (Curcuma longa L)” (PLOS ONE, 2024)
Ends that are not written are not given here.

Tests used:
[1] = tested on: Acinetobacter baumannii (ATCC 19606); experiment: microbe, parasite or virus in culture; assay type: cell-based; conditions: sample 100 μg/mL, 6 h at 37°C, MTT OD570 vs inoculated broth control
Description: (§1) Pathogenic microorganism composes of Escherichia coli (ATCC 25922), Staphylococcus aureus (ATCC 25923), Staphylococcus epidermidis (ATCC 12228), Bacillus subtilis (ATCC 6633), Bacillus cereus (ATCC 11778), Pseudomonas aeruginosa (ATCC 27853), Vibrio parahaemolyticus (ATCC 17802), Klebsiella pneumoniae (ATCC 27736), Acinetobacter baumannii (ATCC 19606), Enterobacter cloacae (ATCC 13047), Salmonella enterica (ATCC 13311), and Salmonella Typhi (ATCC 22842) were used in the experiments.
(§2) Bacteria were initially cultured on Tryptic Soy Agar (TSA) plates at 37°C for 12–16 hours. A single colony was transferred to Tryptic Soy Broth (TSB) and incubated at 37°C with gently agitation at 100 rpm, for an additional 12–16 hours. The bacterial concentration was adjusted to an optical density at 600 nm (OD600) of 0.05, corresponding to 4 x 10^7 CFU/mL, before being added to a 96-well plate (50 μL per well). Subsequently, 50 μL of protein hydrolysate or peptide was inoculated into each well at a final concentration of 100 μg/mL, and the mixture was incubated at 37°C with continuous shaking at 100 rpm for 6 hours. Wells with inoculated broth alone served as a negative control, while wells containing Ampicillin (100 μg/mL) served as a positive control. Following incubation, 25 μL of a 100 μg/mL MTT (3-(4,5-dimethylthiazol-2-yl)-2,5-diphenyltetrazolium bromide) solution was added to each well, thoroughly mixed, and incubated at room temperature for 4 hours. The optical density at 570 nm (OD570nm) was subsequently measured using a microplate reader (Synergy H1 Hybrid Multi-Mode Reader, Biotek, Winusky, VT, USA). The percentage of inhibition was calculated using the provided equation: [(OD570control–OD570test)/OD570control]×100 (1)

[2] = tested on: Salmonella enterica (ATCC 13311); experiment: microbe, parasite or virus in culture; assay type: cell-based; conditions: sample 100 μg/mL, 6 h at 37°C, MTT OD570 vs inoculated broth control
Description: as §1, §2

[3] = tested on: Staphylococcus aureus (ATCC 25923); experiment: microbe, parasite or virus in culture; assay type: cell-based; conditions: sample 100 μg/mL, 6 h at 37°C, MTT OD570 vs inoculated broth control
Description: as §1, §2

[4] = tested on: Staphylococcus epidermidis (ATCC 12228); experiment: microbe, parasite or virus in culture; assay type: cell-based; conditions: sample 100 μg/mL, 6 h at 37°C, MTT OD570 vs inoculated broth control
Description: as §1, §2

[5] = tested on: Bacillus cereus (ATCC 11778); experiment: Antimicrobial activity assay (broth culture, MTT read-out); assay type: cell-based; conditions: ATCC11778, sample 100 μg/mL, 6 h at 37°C, MTT OD570 vs inoculated broth control, read-out: Inhibitory Percentage (Means±SD), Bacillus cereus ATCC 11778
Description: as §1, §2

[6] = tested on: Bacillus subtilis (ATCC 6633); experiment: as above; assay type: cell-based; conditions: ATCC6633, sample 100 μg/mL, 6 h at 37°C, MTT OD570 vs inoculated broth control, read-out: Inhibitory Percentage (Means±SD), Bacillus subtilis ATCC 6633
Description: as §1, §2

[7] = tested on: Enterobacter cloacae (ATCC 13047); experiment: as above; assay type: cell-based; conditions: ATCC13047, sample 100 μg/mL, 6 h at 37°C, MTT OD570 vs inoculated broth control, read-out: Inhibitory Percentage (Means±SD), Enterobacter cloacae ATCC 13047
Description: as §1, §2

[8] = tested on: Escherichia coli (ATCC 25922); experiment: as above; assay type: cell-based; conditions: ATCC25922, sample 100 μg/mL, 6 h at 37°C, MTT OD570 vs inoculated broth control, read-out: Inhibitory Percentage (Means±SD), Escherichia coli ATCC 25922
Description: as §1, §2

[9] = tested on: Klebsiella pneumoniae (ATCC 27736); experiment: as above; assay type: cell-based; conditions: ATCC27736, sample 100 μg/mL, 6 h at 37°C, MTT OD570 vs inoculated broth control, read-out: Inhibitory Percentage (Means±SD), Klebsiella pneumoniae ATCC 27736
Description: as §1, §2

[10] = tested on: Pseudomonas aeruginosa (ATCC 27853); experiment: as above; assay type: cell-based; conditions: ATCC27853, sample 100 μg/mL, 6 h at 37°C, MTT OD570 vs inoculated broth control, read-out: Inhibitory Percentage (Means±SD), Pseudomonas aeruginosa ATCC 27853
Description: as §1, §2

[11] = tested on: Salmonella Typhi (ATCC 22842); experiment: as above; assay type: cell-based; conditions: Salmonella enterica, 6 h, read-out: Inhibitory Percentage (Means±SD), Salmonella Typhi ATCC 22842
Description: as §1, §2

[12] = tested on: Vibrio parahaemolyticus (ATCC 17802); experiment: as above; assay type: cell-based; conditions: ATCC17802, sample 100 μg/mL, 6 h at 37°C, MTT OD570 vs inoculated broth control, read-out: Inhibitory Percentage (Means±SD), Vibrio parahaemolyticus ATCC 17802
Description: as §1, §2

[13] = ABTS radical scavenging assay; conditions: 10 μL sample + 190 μL ABTS solution, 5 min dark, absorbance 750 nm, ascorbic acid standard; hydrolysate at 100 μg/mL
Description: Radical scavenging antioxidant activity was determined according to the ABTS radical scavenging activity following the method described by Re et al. with slight modifications. Briefly, the solution of ABTS radical was prepared from the reaction between 7 mM ABTS (2,2-azino-bis (3-ethylbenzothiazoline-6-sulphonic acid) diammonium salt) and 2.45 mM ammonium persulphate. The resulting ABTS solution was diluted with distilled water to achieve an optical density of 0.7 at 750 nm. Then, a sample or standard of 10 μL was mixed with 190 μL of ABTS solution and incubated for 5 minutes in the dark. The absorbance was measured at 750 nm by a microplate reader (Synergy H1 Hybrid Multi-Mode Reader, Biotek, Winusky, VT, USA). Ascorbic acid was used as the standard.

[14] = DPPH radical scavenging assay; conditions: 10 μL sample + 190 μL 0.1 mM DPPH, 30 min dark, room temperature, absorbance 517 nm, ascorbic acid standard; hydrolysate at 100 μg/mL
Description: The DPPH radical scavenging activity of the sample was evaluated following the protocol by Muangrod et al. with slight modifications. Briefly, 190 μL of 0.1 mM DPPH was mixed with 10 μL of the sample or standard ascorbic acid in each well and incubated at room temperature in the dark for 30 minutes. The absorbance of the mixture was measured at 517 nm using a microplate reader (Synergy H1 Hybrid Multi-Mode Reader, Biotek, Winusky, VT, USA). The percentage inhibition of DPPH radical scavenging activity was calculated using the following equation: %DPPHinhibition=[(Acontrol−Asample)/Acontrol]×100 (2) where A control means the absorbance of the control that contained all reagents except the test samples, and A sample means the absorbance of the mixture (sample and 0.1 mM DPPH). Ascorbic acid was used as the standard. Results were expressed as μg ascorbic acid equivalent (μg AAE g^−1).

[15] = FRAP (ferric ion-reducing antioxidant power) assay; conditions: 10 μL sample + 190 μL FRAP reagent (acetate pH 3.6, TPTZ, FeCl3), 30 min dark, absorbance 593 nm, ascorbic acid standard; hydrolysate at 100 μg/mL
Description: The ferric ion-reducing antioxidant power assay was analyzed according to the method by Rumpf et al. with minor modifications. Briefly, the FRAP reagent was prepared from 300 mM sodium acetate (pH 3.6) and 10 mM TPTZ (2,4,6-tris (2-pyridyl)-s-triazine) in 40 mM HCl and 20 mM ferric chloride at the ratio of 10:1:1, respectively. Then, a 10 μL aliquot of the sample or standard was mixed with 190 μL of the FRAP reagent before incubating in the dark for 30 minutes. The absorbance was measured at 593 nm using a microplate reader (Synergy H1 Hybrid Multi-Mode Reader, Biotek, Winusky, VT, USA). Ascorbic acid (Sigma-Aldrich, Singapore) was used as the standard. Results were expressed as micrograms of ascorbic acid equivalent per gram (μg AAE g^−1).

Compound	ABTS radical-scavenging activity (antioxidant activity ± SD) [13]	DPPH radical scavenging activity (antioxidant activity ± SD) [14]	FRAP (antioxidant activity ± SD) [15]	also measured
CC1(C)S[C@@H]2[C@H](NC(=O)[C@H](N)c3ccccc3)C(=O)N2[C@H]1C(=O)O [Ampicillin]	–	–	–	inhibition at 100 µg/mL ([1]; Acinetobacter baumannii, ATCC19606, read-out: Inhibitory Percentage (Means±SD), Acinetobacter baumannii ATCC 19606): 42 ± 4.67%; inhibition at 100 µg/mL ([2]; Salmonella enterica, ATCC13311, read-out: Inhibitory Percentage (Means±SD), Salmonella enterica ATCC 13311): 84.6 ± 4.34%; inhibition at 100 µg/mL ([3]; Staphylococcus aureus, ATCC25923, read-out: Inhibitory Percentage (Means±SD), Staphylococcus aureus ATCC 25923): -2.72 ± 0.02%; inhibition at 100 µg/mL ([4]; Staphylococcus epidermidis, ATCC12228, read-out: Inhibitory Percentage (Means±SD), Staphylococcus epidermidis ATCC 12228): 7.42 ± 0.23%; inhibition at 100 µg/mL [5]: 35.9 ± 1.46%; inhibition at 100 µg/mL [6]: 96.5 ± 4.03%; inhibition at 100 µg/mL [7]: 15.6 ± 0.89%; inhibition at 100 µg/mL [8]: 82.1 ± 2.62%; inhibition at 100 µg/mL [9]: -19.1 ± 1.32%; inhibition at 100 µg/mL [10]: 16.3 ± 0.87%; inhibition at 100 µg/mL [11]: 8.6 ± 0.22%; inhibition at 100 µg/mL [12]: -45.8 ± 1.54%
ARLLLLKP [Cur-8]	0.13±0.00 μg AAE g^−1	0.58±0.00 μg AAE g^−1	1.05±0.01 μg AAE g^−1	–
HAFRDAVTPLE [Cur-12]	0.02±0.00 μg AAE g^−1	0.60±0.06 μg AAE g^−1	1.04±0.01 μg AAE g^−1	–
KLHLLILI [Cur-1]	0.22±0.00 μg AAE g^−1	0.63±0.04 μg AAE g^−1	1.05±0.01 μg AAE g^−1	Inhibitory Percentage (Means±SD), Acinetobacter baumannii ATCC 19606 ([1]; listed as Cur-25): inhibited growth; Inhibitory Percentage (Means±SD), Salmonella enterica ATCC 13311 ([2]; listed as Cur-25): inhibited growth; Inhibitory Percentage (Means±SD), Staphylococcus aureus ATCC 25923 ([3]; listed as Cur-25): inhibited growth; Inhibitory Percentage (Means±SD), Staphylococcus epidermidis ATCC 12228 ([4]; listed as Cur-25): inhibited growth
LKKPVILL [Cur-11]	0.17±0.01 μg AAE g^−1	0.68±0.02 μg AAE g^−1	1.05±0.01 μg AAE g^−1	–
LKKTLLLVNKADLLP [Cur-5]	0.12±0.00 μg AAE g^−1	0.62±0.01 μg AAE g^−1	1.04±0.00 μg AAE g^−1	–
PKVKILIL [Cur-4]	0.15±0.00 μg AAE g^−1	0.77±0.01 μg AAE g^−1	1.08±0.09 μg AAE g^−1	–
PLKLLLPL [Cur-7]	0.15±0.00 μg AAE g^−1	0.74±0.02 μg AAE g^−1	1.04±0.00 μg AAE g^−1	–
PLLLKLIV [Cur-2]	0.13±0.00 μg AAE g^−1	0.75±0.03 μg AAE g^−1	1.05±0.01 μg AAE g^−1	Inhibitory Percentage (Means±SD), Acinetobacter baumannii ATCC 19606 ([1]; listed as Cur-14): inhibited growth; Inhibitory Percentage (Means±SD), Salmonella enterica ATCC 13311 ([2]; listed as Cur-14): inhibited growth; Inhibitory Percentage (Means±SD), Staphylococcus aureus ATCC 25923 ([3]; listed as Cur-14): inhibited growth; Inhibitory Percentage (Means±SD), Staphylococcus epidermidis ATCC 12228 ([4]; listed as Cur-14): inhibited growth
QIILLLLKP [Cur-9]	0.07±0.00 μg AAE g^−1	0.70±0.00 μg AAE g^−1	1.04±0.02 μg AAE g^−1	–
VHVLLLIL [Cur-10]	0.30±0.01 μg AAE g^−1	0.75±0.04 μg AAE g^−1	1.04±0.00 μg AAE g^−1	–
VKLKIPLLIL [Cur-3]	0.08±0.00 μg AAE g^−1	0.67±0.00 μg AAE g^−1	1.04±0.00 μg AAE g^−1	–
VLKKLLPLL [Cur-6]	0.09±0.01 μg AAE g^−1	0.67±0.06 μg AAE g^−1	1.05±0.00 μg AAE g^−1	–
